Results as given in PubChem BioAssay AID194 (DTP/NCI, 2004).
Several values for one entry are separate records, joined by “and”; a condition that tells them apart may be missing. Equal values may be shown once. Inconclusive results are not listed.

Tested on: BDF1 mice, B16 melanoma s.c., survival/tumor T/C
Test: NCI In Vivo Anticancer Drug Screen. Data for tumor model B16 Melanoma (subcutaneous) in B6D2F1 (BDF1) mice
Procedure: The antitumor activity of compounds was measured in mice bearing transplantable tumors. Survival or tumor size were measured and the results are expressed as the measurement made in the treated group (T) divided by the measurement made in the vehicle treated control group (C). The tumor model used in this assay is B16 Melanoma (subcutaneous) in B6D2F1 (BDF1) mice

[1] = endpoint: median survival time, dose: 50.0 mg/kg/injection, schedule: Q04DX003 (ip), vehicle: saline, higher = longer survival
[2] = endpoint: median survival time, dose: 100.0 mg/kg/injection, schedule: Q04DX003 (ip), vehicle: saline, higher = longer survival

Compound: O=C(O)CCCc1ccc(N(CCCl)CCCl)cc1
- T/C (endpoint: median survival time, dose: 1.5 mg/kg/injection, schedule: Q01DX009 (ip), vehicle: Klucel (hydroxypropylcellulose) (HPC), higher = longer survival): 111 % of control
- T/C (endpoint: median survival time, dose: 3.0 mg/kg/injection, schedule: Q01DX009 (ip), vehicle: Klucel (hydroxypropylcellulose) (HPC), higher = longer survival): 105 % of control
- T/C (endpoint: median survival time, dose: 4.0 mg/kg/injection, schedule: Q01DX009 (ip), vehicle: Klucel (hydroxypropylcellulose) (HPC), higher = longer survival): 121 % of control
- T/C (endpoint: median survival time, dose: 6.0 mg/kg/injection, schedule: Q01DX009 (ip), vehicle: Klucel (hydroxypropylcellulose) (HPC), higher = longer survival): 101 % of control
- T/C (endpoint: median survival time, dose: 8.0 mg/kg/injection, schedule: Q01DX009 (ip), vehicle: Klucel (hydroxypropylcellulose) (HPC), higher = longer survival): 102 % of control
- T/C (endpoint: median survival time, dose: 12.0 mg/kg/injection, schedule: Q01DX009 (ip), vehicle: Klucel (hydroxypropylcellulose) (HPC), higher = longer survival): 97 % of control
- T/C (endpoint: median tumor weight (est.), dose: 4.0 mg/kg/injection, schedule: Q01DX009 (ip), vehicle: saline with Tween-80, higher = larger tumour): 61 % of control
- T/C (endpoint: median tumor weight (est.), dose: 8.0 mg/kg/injection, schedule: Q01DX009 (ip), vehicle: saline with Tween-80, higher = larger tumour): 25 % of control

Compound: CN(N=O)C(=O)N[C@@H](C=O)[C@@H](O)[C@H](O)[C@H](O)CO
- T/C (endpoint: median survival time, dose: 20.0 mg/kg/injection, schedule: Q01DX009 (ip), vehicle: other, higher = longer survival): 113 % of control
- T/C (endpoint: median survival time, dose: 40.0 mg/kg/injection, schedule: Q01DX009 (ip), vehicle: other, higher = longer survival): 123 % of control
- T/C (endpoint: median survival time, dose: 80.0 mg/kg/injection, schedule: Q01DX009 (ip), vehicle: other, higher = longer survival): 106 % of control

Compound: Cc1cc(NC(=O)NCc2ccc(N3C(N)=NC(N)=NC3(C)C)cc2)ccc1S(=O)(=O)F
- T/C [1]: 106 % of control
- T/C [2]: 95 % of control

Compound: CCOC(=O)c1csc(-c2csc(CCNC(=O)c3ccccc3)n2)n1
- T/C (endpoint: median survival time, dose: 6.25 mg/kg/injection, schedule: Q01DX009 (ip), vehicle: saline with Tween-80, higher = longer survival): 95 % of control
- T/C (endpoint: median survival time, dose: 12.5 mg/kg/injection, schedule: Q01DX009 (ip), vehicle: saline with Tween-80, higher = longer survival): 102 % of control
- T/C (endpoint: median survival time, dose: 25.0 mg/kg/injection, schedule: Q01DX009 (ip), vehicle: saline with Tween-80, higher = longer survival): 87 % of control
- T/C (endpoint: median survival time, dose: 50.0 mg/kg/injection, schedule: Q01DX009 (ip), vehicle: saline with Tween-80, higher = longer survival): 91 % of control
- T/C (endpoint: median survival time, dose: 100.0 mg/kg/injection, schedule: Q01DX009 (ip), vehicle: saline with Tween-80, higher = longer survival): 106 % of control

Compound: C[C@H](CN1CC(=O)NC(=O)C1)N1CC(=O)NC(=O)C1
- T/C (endpoint: median survival time, dose: 6.25 mg/kg/injection, schedule: Q04DX003 (ip), vehicle: saline, higher = longer survival): 122 % of control
- T/C (endpoint: median survival time, dose: 8.0 mg/kg/injection, schedule: Q01DX009 (ip), vehicle: saline, higher = longer survival): 109 % of control
- T/C (endpoint: median survival time, dose: 12.5 mg/kg/injection, schedule: Q04DX003 (ip), vehicle: saline, higher = longer survival): 102 % of control
- T/C (endpoint: median survival time, dose: 16.0 mg/kg/injection, schedule: Q01DX009 (ip), vehicle: saline, higher = longer survival): 119 % of control
- T/C (endpoint: median survival time, dose: 16.0 mg/kg/injection, schedule: Q01DX009 (ip), vehicle: water, higher = longer survival): 96 % of control
- T/C (endpoint: median survival time, dose: 25.0 mg/kg/injection, schedule: Q04DX003 (ip), vehicle: saline, higher = longer survival): 115 % of control
- T/C (endpoint: median survival time, dose: 32.0 mg/kg/injection, schedule: Q01DX009 (ip), vehicle: saline, higher = longer survival): 112 % of control
- T/C (endpoint: median survival time, dose: 32.0 mg/kg/injection, schedule: Q01DX009 (ip), vehicle: water, higher = longer survival): 109 % of control
- T/C [1]: 111 % of control
- T/C [2]: 115 % of control
- T/C (endpoint: median survival time, dose: 200.0 mg/kg/injection, schedule: Q04DX003 (ip), vehicle: saline, higher = longer survival): 122 % of control
- T/C (endpoint: median survival time, dose: 800.0 mg/kg/injection, schedule: Q04DX003 (ip), vehicle: saline, higher = longer survival): 115 % of control

Compound: CCCCS(=O)CC(CO)NC(=O)/C=C/c1c(C)[nH]c(=O)[nH]c1=O (stereo unspecified)
- T/C (endpoint: median survival time, dose: 1.25 mg/kg/injection, schedule: Q01DX009 (ip), vehicle: water, higher = longer survival): 100 % of control
- T/C (endpoint: median survival time, dose: 5.0 mg/kg/injection, schedule: Q01DX009 (ip), vehicle: water, higher = longer survival): 100 % of control
- T/C (endpoint: median survival time, dose: 10.0 mg/kg/injection, schedule: Q01DX009 (ip), vehicle: water, higher = longer survival): 116 % of control

Compound: NC(C/[N+]([O-])=N/O)C(=O)O (stereo unspecified)
- T/C (endpoint: median survival time, dose: 8.75 mg/kg/injection, schedule: Q01DX010 (ip), vehicle: alkali diluted with saline, higher = longer survival): 96 % of control
- T/C (endpoint: median survival time, dose: 8.78 mg/kg/injection, schedule: Q01DX010 (ip), vehicle: alkali diluted with saline, higher = longer survival): 100 % of control
- T/C (endpoint: median survival time, dose: 13.2 mg/kg/injection, schedule: Q01DX010 (ip), vehicle: alkali diluted with saline, higher = longer survival): 152 % of control and 154 % of control
- T/C (endpoint: median survival time, dose: 29.6 mg/kg/injection, schedule: Q01DX010 (ip), vehicle: alkali diluted with saline, higher = longer survival): 93 % of control and 96 % of control
- T/C (endpoint: median survival time, dose: 40.0 mg/kg/injection, schedule: Q01DX009 (ip), vehicle: Klucel (hydroxypropylcellulose) (HPC), higher = longer survival): 103 % of control
- T/C (endpoint: median survival time, dose: 44.4 mg/kg/injection, schedule: Q01DX010 (ip), vehicle: alkali diluted with saline, higher = longer survival): 104 % of control
- T/C (endpoint: median survival time, dose: 66.7 mg/kg/injection, schedule: Q01DX010 (ip), vehicle: alkali diluted with saline, higher = longer survival): 122 % of control
- T/C (endpoint: median survival time, dose: 300.0 mg/kg/injection, schedule: Q01DX001 (ip), vehicle: Klucel (hydroxypropylcellulose) (HPC), higher = longer survival): 87 % of control
- T/C (endpoint: median survival time, dose: 300.0 mg/kg/injection, schedule: Q04DX003 (ip), vehicle: Klucel (hydroxypropylcellulose) (HPC), higher = longer survival): 93 % of control
- T/C (endpoint: median survival time, dose: 500.0 mg/kg/injection, schedule: Q01DX001 (ip), vehicle: Klucel (hydroxypropylcellulose) (HPC), higher = longer survival): 97 % of control

Compound: Cc1cc(OCc2nc(N)nc(N)c2-c2ccc(Cl)c(Cl)c2)ccc1NS(=O)(=O)c1cccc(S(=O)(=O)F)c1
- T/C (endpoint: median survival time, dose: 117.0 mg/kg/injection, schedule: Q04DX003 (ip), vehicle: saline, higher = longer survival): 95 % of control
- T/C (endpoint: median survival time, dose: 176.0 mg/kg/injection, schedule: Q04DX003 (ip), vehicle: saline, higher = longer survival): 118 % of control

Compound: OC(CCl)CN1CC[N+]2(CC1)CC[N+]1(CCN(CC(O)CCl)CC1)CC2 (stereo unspecified)
- T/C (endpoint: median survival time, dose: 134.0 mg/kg/injection, schedule: Q01DX007 (ip), vehicle: saline, higher = longer survival): 162 % of control
- T/C (endpoint: median survival time, dose: 200.0 mg/kg/injection, schedule: Q01DX009 (ip), vehicle: saline, higher = longer survival): 112 % of control
- T/C (endpoint: median survival time, dose: 300.0 mg/kg/injection, schedule: Q01DX007 (ip), vehicle: saline, higher = longer survival): 173 % of control
- T/C (endpoint: median survival time, dose: 300.0 mg/kg/injection, schedule: Q01DX009 (ip), vehicle: saline, higher = longer survival): 161 % of control
- T/C (endpoint: median survival time, dose: 670.0 mg/kg/injection, schedule: Q01DX001 (ip), vehicle: saline, higher = longer survival): 108 % of control
- T/C (endpoint: median survival time, dose: 1000.0 mg/kg/injection, schedule: Q01DX001 (ip), vehicle: saline, higher = longer survival): 92 % of control
- T/C (endpoint: median survival time, dose: 1500.0 mg/kg/injection, schedule: Q01DX001 (ip), vehicle: saline, higher = longer survival): 120 % of control

Compound: CC(=O)O[C@]1(C(C)=O)CC[C@H]2[C@@H]3C[C@H](C)C4=CC(=O)CC[C@]4(C)[C@H]3CC[C@@]21C
- T/C (endpoint: median survival time, dose: 100.0 mg/kg/injection, schedule: Q01DX009 (ip), vehicle: Klucel (hydroxypropylcellulose) (HPC), higher = longer survival): 111 % of control and 112 % of control
- T/C (endpoint: median survival time, dose: 200.0 mg/kg/injection, schedule: Q01DX009 (ip), vehicle: Klucel (hydroxypropylcellulose) (HPC), higher = longer survival): 86 % of control and 102 % of control
- T/C (endpoint: median survival time, dose: 400.0 mg/kg/injection, schedule: Q01DX009 (ip), vehicle: Klucel (hydroxypropylcellulose) (HPC), higher = longer survival): 96 % of control and 102 % of control
- T/C (endpoint: median survival time, dose: 800.0 mg/kg/injection, schedule: Q01DX009 (ip), vehicle: Klucel (hydroxypropylcellulose) (HPC), higher = longer survival): 104 % of control and 111 % of control

Compound: O=c1[nH]c(=O)n(C2CC(O)C(CO)O2)cc1C(F)(F)F (stereo unspecified)
- T/C (endpoint: median survival time, dose: 10.0 mg/kg/injection, schedule: Q01DX009 (ip), vehicle: saline, higher = longer survival): 103 % of control
- T/C (endpoint: median survival time, dose: 20.0 mg/kg/injection, schedule: Q01DX009 (ip), vehicle: saline, higher = longer survival): 104 % of control and 111 % of control
- T/C (endpoint: median survival time, dose: 40.0 mg/kg/injection, schedule: Q01DX009 (ip), vehicle: saline, higher = longer survival): 106 % of control
- T/C (endpoint: median survival time, dose: 80.0 mg/kg/injection, schedule: Q01DX009 (ip), vehicle: saline, higher = longer survival): 89 % of control
- T/C (endpoint: median survival time, dose: 160.0 mg/kg/injection, schedule: Q01DX009 (ip), vehicle: saline, higher = longer survival): 111 % of control
